In US20210253705A1, “METHODS AND AGENTS FOR TREATING ORGAN INJURY AND TRANSPLANT REJECTION” (The Regents of the University of California, priority 2020, published 2021):

System: BALB/c airway allografts in C57BL/6 recipients
Assay: Heterotopic subcutaneous tracheal/airway transplantation model of allograft rejection
Type: in vivo, mice
Details: recipients treated with CCR4 inhibitor, day 14
Protocol: Each mouse was subcutaneously transplanted with two tracheas. Small molecule CCR4 inhibitor or antagonist C 021 dihydrochloride (Cat #3581, Tocris Bio-Techne, Minneapolis, Minn., USA) was resuspended in sterile DMSO to 100 mg/ml and diluted further in 1×PBS to be administered as intraperitoneal (i.p.) injections at 50 mg/kg daily starting at day −1 prior to tracheal transplantation until day 14 when allografts were harvested for rejection analysis.
Histopathological Evaluation of Airway and Lung Transplants. Airway and lung graft tissues were fixed overnight in 4% paraformaldehyde, processed, paraffin-embedded, sectioned and stained with hematoxylin and eosin (H&E) or Elastin Trichrome. Three independent blinded reviewers calculated the degree of airway injury using a histological scoring system. All qualitative histological changes were evaluated and the total murine rejection score was calculated based on four pathological criteria: (a) airway lining epithelial loss, (b) deposition of extracellular matrix (ECM), (c) leukocyte infiltration, and (d) luminal fibro-obliteration due to granulation tissue formation and/or fibrosis. Each process was scored on a scale of 0-4 (0=normal, 1=mild, 2=moderate, 3=severe and 4=very severe) and added together for a total rejection score. […] Images were taken by Zeiss Axioskop 2 plus microscope and analyzed with AxioVision 4.2 imaging software. […]

COc1cc2nc(N3CCC(N4CCCCC4)CC3)nc(NC3CCCCCC3)c2cc1OC.Cl.Cl [C 021 dihydrochloride, 2-[1,4′-bipiperidin]-1′-yl-N-cycloheptyl-6,7-dimethoxy-4-quinazolinamine dihydrochloride]
H&E histology of airway allografts: virtually normal epithelium and minimal matrix deposition without fibro-obliteration
